Measured values: PubChem BioAssay (NCI)
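Dose response: 5 concentrations. Exposure: 48 h. Format: 96-well plates. Endpoint: linear interpolation; highest concentration if not reached. GI50 is the concentration that inhibits growth by half. TGI is the concentration that stops growth completely.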

What was measured:
Test in all cases: growth of human tumour cells (NCI), 48 h
786-0 renal = tested on: 786-0 renal
A498 renal = tested on: A498 renal
A549 NSCLC = tested on: A549 NSCLC
ACHN renal = tested on: ACHN renal
BT-549 breast = tested on: BT-549 breast
CAKI-1 renal = tested on: CAKI-1 renal
CCRF-CEM leukemia = tested on: CCRF-CEM leukemia
COLO 205 colon = tested on: COLO 205 colon
DU-145 prostate = tested on: DU-145 prostate
EKVX NSCLC = tested on: EKVX NSCLC
HCC-2998 colon = tested on: HCC-2998 colon
HCT-116 colon = tested on: HCT-116 colon
HCT-15 colon = tested on: HCT-15 colon
HL-60(TB) leukemia = tested on: HL-60(TB) leukemia
HOP-62 NSCLC = tested on: HOP-62 NSCLC
HOP-92 NSCLC = tested on: HOP-92 NSCLC
HS 578T breast = tested on: HS 578T breast
HT29 colon = tested on: HT29 colon
IGROV1 ovarian = tested on: IGROV1 ovarian
K-562 leukemia = tested on: K-562 leukemia
KM12 colon = tested on: KM12 colon
LOX IMVI melanoma = tested on: LOX IMVI melanoma
M14 melanoma = tested on: M14 melanoma
MALME-3M melanoma = tested on: MALME-3M melanoma
MCF7 breast = tested on: MCF7 breast
MDA-MB-231 breast = tested on: MDA-MB-231 breast
MDA-MB-435 = tested on: MDA-MB-435
MOLT-4 leukemia = tested on: MOLT-4 leukemia
NCI-H226 lung = tested on: NCI-H226 lung
NCI-H23 lung = tested on: NCI-H23 lung
NCI-H460 lung = tested on: NCI-H460 lung
NCI-H522 lung = tested on: NCI-H522 lung
NCI/ADR-RES ovarian = tested on: NCI/ADR-RES ovarian
OVCAR-3 ovarian = tested on: OVCAR-3 ovarian
OVCAR-4 ovarian = tested on: OVCAR-4 ovarian
OVCAR-5 ovarian = tested on: OVCAR-5 ovarian
OVCAR-8 ovarian = tested on: OVCAR-8 ovarian
PC-3 prostate = tested on: PC-3 prostate
RPMI-8226 leukemia = tested on: RPMI-8226 leukemia
RXF 393 renal = tested on: RXF 393 renal
SF-268 CNS = tested on: SF-268 CNS
SF-295 CNS = tested on: SF-295 CNS
SF-539 CNS = tested on: SF-539 CNS
SK-MEL-2 melanoma = tested on: SK-MEL-2 melanoma
SK-MEL-28 melanoma = tested on: SK-MEL-28 melanoma
SK-MEL-5 melanoma = tested on: SK-MEL-5 melanoma
SK-OV-3 ovarian = tested on: SK-OV-3 ovarian
SN12C renal = tested on: SN12C renal
SNB-19 CNS = tested on: SNB-19 CNS
SNB-75 CNS = tested on: SNB-75 CNS
SR leukemia = tested on: SR leukemia
SW-620 colon = tested on: SW-620 colon
T-47D breast = tested on: T-47D breast
TK-10 renal = tested on: TK-10 renal
U251 CNS = tested on: U251 CNS
UACC-257 melanoma = tested on: UACC-257 melanoma
UACC-62 melanoma = tested on: UACC-62 melanoma
UO-31 renal = tested on: UO-31 renal

S=C1SCN(Cc2ccccc2)CN1Cc1ccccc1
GI50 (786-0 renal): 7.63 µM | TGI (786-0 renal): 23.1 µM | GI50 (A498 renal): 15.5 µM | TGI (A498 renal): 43.6 µM | GI50 (A549 NSCLC): 15.4 µM | TGI (A549 NSCLC): 37.6 µM | GI50 (ACHN renal): 14.8 µM | TGI (ACHN renal): 28.2 µM | GI50 (BT-549 breast): 6.51 µM | TGI (BT-549 breast): 33.4 µM | GI50 (CAKI-1 renal): 7.19 µM | TGI (CAKI-1 renal): 20.9 µM | GI50 (CCRF-CEM leukemia): 1.15 µM | TGI (CCRF-CEM leukemia): 3.56 µM | GI50 (COLO 205 colon): 3.21 µM | TGI (COLO 205 colon): 11.6 µM | GI50 (DU-145 prostate): 2.69 µM | TGI (DU-145 prostate): 9.18 µM | GI50 (EKVX NSCLC): 21.2 µM | TGI (EKVX NSCLC): > 57.8 µM | GI50 (HCC-2998 colon): 21.7 µM | TGI (HCC-2998 colon): 37.8 µM | GI50 (HCT-116 colon): 3.05 µM | TGI (HCT-116 colon): 13 µM | GI50 (HCT-15 colon): 4.13 µM | TGI (HCT-15 colon): 17.1 µM | GI50 (HL-60(TB) leukemia): 1.17 µM | TGI (HL-60(TB) leukemia): 3.83 µM | GI50 (HOP-62 NSCLC): 55.6 µM | TGI (HOP-62 NSCLC): > 100 µM | GI50 (HOP-92 NSCLC): 2.37 µM | TGI (HOP-92 NSCLC): 13.8 µM | GI50 (HS 578T breast): 3.02 µM | TGI (HS 578T breast): 25.6 µM | GI50 (HT29 colon): 3.89 µM | TGI (HT29 colon): 15.1 µM | GI50 (IGROV1 ovarian): 4.39 µM | TGI (IGROV1 ovarian): 12.2 µM | GI50 (K-562 leukemia): 1.15 µM | TGI (K-562 leukemia): 9 µM | GI50 (KM12 colon): 2.1 µM | TGI (KM12 colon): 6.84 µM | GI50 (LOX IMVI melanoma): 3 µM | TGI (LOX IMVI melanoma): 15 µM | GI50 (M14 melanoma): 6.5 µM | TGI (M14 melanoma): 27.8 µM | GI50 (MALME-3M melanoma): 8.75 µM | TGI (MALME-3M melanoma): 26.7 µM | GI50 (MCF7 breast): 2.19 µM | TGI (MCF7 breast): 15.1 µM | GI50 (MDA-MB-231 breast): 3.04 µM | TGI (MDA-MB-231 breast): 10.1 µM | GI50 (MDA-MB-435): 2.35 µM | TGI (MDA-MB-435): 7.16 µM | GI50 (MOLT-4 leukemia): 1.44 µM | TGI (MOLT-4 leukemia): 5.14 µM | GI50 (NCI-H226 lung): > 32.6 µM | TGI (NCI-H226 lung): > 50.8 µM | GI50 (NCI-H23 lung): 12.1 µM | TGI (NCI-H23 lung): 42.9 µM | GI50 (NCI-H460 lung): 31 µM | TGI (NCI-H460 lung): > 100 µM | GI50 (NCI-H522 lung): 3.83 µM | TGI (NCI-H522 lung): 10 µM | GI50 (NCI/ADR-RES ovarian): 33.1 µM | TGI (NCI/ADR-RES ovarian): > 100 µM | GI50 (OVCAR-3 ovarian): 2.49 µM | TGI (OVCAR-3 ovarian): 9.09 µM | GI50 (OVCAR-4 ovarian): 9.43 µM | TGI (OVCAR-4 ovarian): 27.6 µM | GI50 (OVCAR-5 ovarian): 25.7 µM | TGI (OVCAR-5 ovarian): > 60.5 µM | GI50 (OVCAR-8 ovarian): 21.6 µM | TGI (OVCAR-8 ovarian): 90 µM | GI50 (PC-3 prostate): 3.36 µM | TGI (PC-3 prostate): 15.6 µM | GI50 (RPMI-8226 leukemia): 0.119 µM | TGI (RPMI-8226 leukemia): 0.415 µM | GI50 (RXF 393 renal): 1.55 µM | TGI (RXF 393 renal): 6.32 µM | GI50 (SF-268 CNS): 9.55 µM | TGI (SF-268 CNS): > 37.6 µM | GI50 (SF-295 CNS): 24.4 µM | TGI (SF-295 CNS): > 90 µM | GI50 (SF-539 CNS): 17.2 µM | TGI (SF-539 CNS): > 61.3 µM | GI50 (SK-MEL-2 melanoma): 7.53 µM | TGI (SK-MEL-2 melanoma): 25.3 µM | GI50 (SK-MEL-28 melanoma): 5.27 µM | TGI (SK-MEL-28 melanoma): 17.9 µM | GI50 (SK-MEL-5 melanoma): 13.6 µM | TGI (SK-MEL-5 melanoma): 28.1 µM | GI50 (SK-OV-3 ovarian): 98.7 µM | TGI (SK-OV-3 ovarian): > 100 µM | GI50 (SN12C renal): 5.01 µM | TGI (SN12C renal): 18.5 µM | GI50 (SNB-19 CNS): > 54.7 µM | TGI (SNB-19 CNS): > 100 µM | GI50 (SNB-75 CNS): 15.4 µM | TGI (SNB-75 CNS): > 48.1 µM | GI50 (SR leukemia): 0.303 µM | TGI (SR leukemia): 3.02 µM | GI50 (SW-620 colon): 3.02 µM | TGI (SW-620 colon): 11.8 µM | GI50 (T-47D breast): 3.51 µM | TGI (T-47D breast): 21.1 µM | GI50 (TK-10 renal): 3.68 µM | TGI (TK-10 renal): 12.6 µM | GI50 (U251 CNS): 5.61 µM | TGI (U251 CNS): 16.4 µM | GI50 (UACC-257 melanoma): 16 µM | TGI (UACC-257 melanoma): 33.2 µM | GI50 (UACC-62 melanoma): 5.05 µM | TGI (UACC-62 melanoma): 16.9 µM | GI50 (UO-31 renal): 5.43 µM | TGI (UO-31 renal): 19 µM
